Results as given in US20240201203A1, “COMPOSITIONS AND METHODS FOR TREATING INDIVIDUALS WHO HAVE ONCOGENE-NEGATIVE CANCER” (priority 2021, published 2024).

Experiments:
[1] = system: Nf1, Rasa1, and Pten mutant oncogene-negative lung tumors; assay: Drug efficacy study in TC mice with oncogene-negative lung tumors (Tuba-seq, imaging, histology); format: in vivo, mouse; settings: tumors from sgNf1/sgRasa1/sgPten vectors, capivasertib 100 mg/kg, RMC-4550 30 mg/kg, gavage, two weeks, 3.5 months after tumor initiation, vs vehicle
Method: For drug efficacy studies, TC mice (8-12 weeks old) were divided into 4 groups randomly. They received the vehicle, capivasertib (100 mg/kg, Med Chem Express), RMC-4550 (30 mg/kg, Med Chem Express), or a combination of both dissolved in 10% DMSO, 40% PEG, 5% Tween 80, and 45% PBS through a gavage needle. Mice were treated daily with drugs for eight days, and the treatment was stopped for two days for recovery, and it continued for two more days before the tissue harvest.
Tumors were initiated by intratracheal delivery of pooled or individual Lenti-sgRNA/Cre vectors. Barcoded Lenti-sgRNA/Cre vectors within each viral pool are indicated in each figure. […]
For DNA extraction from single dissected tumors to generate libraries for Tuba-seq, targeted sequencing of selected oncogenes, and whole-exome sequencing, we used Qiagen AllPrep DNA/RNA Micro kit. […] Three cell lines (100,000 to 500,000 cells each) were added to each mouse lung sample before lysis to enable the calculation of the absolute number of neoplastic cells in each tumor from the number of sgID-BC reads. […] The concentration and quality of the purified libraries were determined using the Agilent High Sensitivity DNA kit (Agilent Technologies, 5067-4626) on the Agilent 2100 Bioanalyzer (Agilent Technologies, G2939BA). […]
The FASTQ files were parsed to identify the sgID and barcode (BC) for each read. […]

[2] = system: RAS and PI3K signaling; assay: Immunoblot of oncogene-negative cell lines treated with drugs; format: cell-based, mouse; settings: 3 oncogene-negative cell lines, 10 uM, 24 hours
Method: (§1) Cell lines were generated from tumors initiated in Trp53^flox/flox; TC BL6 mice four months after transduction with Lenti-sgNf1-sgRasa1-sgPten/Cre. After dissociation of tumors (described below), cells were cultured in the regular media.
For apoptosis and proliferation assays, 3×10^5 cells were seeded into 6-well plates and allowed to adhere overnight in regular growth media and cultured in the presence or absence 10 uM of Capivasertib, RMC-4550, or a combination of both drugs. After 24 hours, the protein was extracted using RIPA lysis buffer (Thermo Fisher Scientific, 89900) and proteinase/phosphatase inhibitor cocktail (Thermo Fisher Scientific, 78442). Protein concentration was measured using BCA protein assay kit (Thermo Fisher Scientific, 23250). Proteins (30 ug from each sample) were separated by SDS-PAGE and immunoblotted and transferred to polyvinyl difluoride (PVDF) membranes (BioRad, 162-0177) according to standard protocols. Membranes were immunoblotted with antibodies against phosphor-ERK (Cell Signaling Technology, 4370), ERK (Cell Signaling Technology, 9102), phosphor-AKT (Thermo Fisher Scientific, 44-621G), AKT (Cell Signaling Technology, 4691), phospho-S6 (Cell Signaling Technology, 4858), S6 (Cell Signaling Technology, 2217), and HSP90 (BD Bioscience, 610418). […]

[3] = system: Nf1, Rasa1, and Pten-mutant lung adenocarcinoma cell-lines; assay: Clonogenic growth assay and Loewe synergy, mouse oncogene-negative cell lines; format: cell-based; settings: three mouse cell lines, various doses, four days, crystal violet
Method: as §1
For clonogenic assays, cells were seeded in triplicate into 24-well plates (4000 cells per well) and allowed to adhere overnight in regular growth media. Cells were then cultured in the absence or presence of the drug as indicated on each figure panel in complete media for 4 days. Growth media with or without drugs was replaced every 2 days. The remaining cells were stained with 0.5% crystal violet in 20% methanol and photographed using a digital scanner. Relative growth was quantified by densitometry after extracting crystal violet from the stained cells using 100% methanol.
Drug synergism was analyzed using SynergyFinder (https://synergyfinder.fimm.fi) web application. The degree of combination synergy, or antagonism, is quantified by comparing the observed drug combination response against the expected response, calculated using Loewe's model that assumes no interaction between drugs.

SMILES | total tumor burden (Tuba-seq analysis) [1] | RAS signaling (immunoblot) [2] | overall growth of oncogene-negative cell lines [3] | PI3K signaling (immunoblot) [2]
Cc1nc(N2CCC3(CC2)CO[C@@H](C)[C@H]3N)c(CO)nc1-c1cccc(Cl)c1Cl [RMC-4550] | reduced the total tumor burden significantly | reduced | decreased the overall growth of three oncogene-negative RAS/PI3K cell lines in a dose-dependent manner | –
NC1(C(=O)N[C@@H](CCO)c2ccc(Cl)cc2)CCN(c2ncnc3[nH]ccc23)CC1 [capivasertib] | ineffective | – | decreased the overall growth of three oncogene-negative RAS/PI3K cell lines in a dose-dependent manner | reduced
